Calls of active or inactive are those of the source. The calls are words filed in the database; no cut-off is given here.
Legend:
[1] = test system: C1 41; experiment: Cytotoxicity against mouse JB6 C1 41 cells up to 200 uM by MTS assay; type: functional, cell-based
[2] = test system: HL-60; experiment: Induction of apoptosis in human HL60 cells at 100 uM after 24 hrs by flow cytometry relative to control; type: functional
[3] = Inhibition of EGF-induced malignant transformation of mouse JB6 C1 41 cells in soft agar; type: functional

## CC1(C)C=C2c3cc4[nH]c5c(c4cc3C[C@@H]2C(C)(C)O1)C[C@@H]1CC[C@@]2(O)C3=CC(=O)[C@@H]4O[C@@]3(CC[C@]2(C)[C@@]51C)OC4(C)C [SHEARININE A]
[1]
  Activity: inactive
[2]
  Activity: 10%

## CC1(C)C=C2c3cc4[nH]c5c(c4cc3[C@@H](O)[C@@H]2C(C)(C)O1)C[C@@H]1CC[C@@]2(O)C3=CC(=O)[C@@H]4O[C@@]3(CC[C@]2(C)[C@@]51C)OC4(C)C [SHEARININE D]
[1]
  Activity: inactive
[2]
  Activity: 39%

## CC1(C)C=C2c3cc4[nH]c5c(c4cc3[C@H](O)[C@@H]2C(C)(C)O1)C[C@@H]1CC[C@@]2(O)C3=CC(=O)[C@@H]4O[C@@]3(CC[C@]2(C)[C@@]51C)OC4(C)C [SHEARININE E]
[1]
  Activity: inactive
[2]
  Activity: 34%
[3]
  INCC50: 13 µM

## CC(C)=CCc1cc2[nH]c3c(c2cc1CC=C(C)C)C[C@@H]1CC[C@@]2(O)C4=CC(=O)[C@@H]5O[C@@]4(CC[C@]2(C)[C@@]31C)OC5(C)C
[1]
  Activity: inactive

Source: ChEMBL document CHEMBL1143726, “Indole alkaloids produced by a marine fungus isolate of Penicillium janthinellum Biourge” (2007)
